Laboratory results from patent US10386375B2, “Methods and systems for the diagnosis and treatment of androgen disorders” (Function Promoting Therapies LLC, priority 2013, dated 2019).

Legend:
SHBG = molecular target: T1, SHBG (Homo sapiens, UniProt P04278); settings: Model A, Vermeulen's model: equal affinity for each monomer in SHBG dimer; fixed model value; cited from earlier work
T1 sequence (P04278 30-402): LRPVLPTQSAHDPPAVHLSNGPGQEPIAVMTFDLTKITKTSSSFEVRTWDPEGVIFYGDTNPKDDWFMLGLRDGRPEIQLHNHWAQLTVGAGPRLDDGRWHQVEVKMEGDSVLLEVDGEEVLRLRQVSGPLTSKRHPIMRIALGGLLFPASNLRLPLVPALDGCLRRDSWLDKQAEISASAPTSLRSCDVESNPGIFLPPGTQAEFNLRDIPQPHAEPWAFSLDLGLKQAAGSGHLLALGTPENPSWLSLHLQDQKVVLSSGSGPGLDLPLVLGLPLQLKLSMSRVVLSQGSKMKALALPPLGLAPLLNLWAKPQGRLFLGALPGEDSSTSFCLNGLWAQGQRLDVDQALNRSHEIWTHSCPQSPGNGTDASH

[1] = Percent free testosterone calculated in serum samples from the TED trial; format: in vitro ADME, men
Experimental: Assessment of FT Concentrations in Clinical Trials. FT determined using the dynamic model developed in this study (cFTZBJ) and Vermeulen's equation (cFTV) (as implemented by Mazer, (Mazer 2009)) were compared with those measured using equilibrium dialysis in samples derived from randomized testosterone trials in men (Spitzer et al 2012) and women (Huang et al 2012). These samples had been collected in fasting state in the morning, stored at −80° C., and never thawed.
At baseline and after 12-weeks of testosterone or placebo administration, total testosterone concentrations were measured using LC-MS/MS and SHBG concentrations using a two-site immunofluorometric assay (DELFIA®, Perkin-Elmer, Waltham, Mass.) (21). FT was measured in the same samples by equilibrium dialysis(Bhasin et al 2012).
Application of new Multi-step Dynamic Binding Model with Complex Allostery to Clinical Trials Data. SHBG and albumin are predominantly the two proteins that bind testosterone with significant affinity; the binding affinities of transcortin and orosomucoid for testosterone are extremely low. […]

Structure (SMILES): C[C@]12CC[C@H]3[C@@H](CCC4=CC(=O)CC[C@@]43C)[C@@H]1CC[C@@H]2O [testosterone, 17-β-hydroxyandrost-4-en-3-one]
- Kd (SHBG): 1 nM
- fraction of circulating testosterone which is free ([1]; calculated with the new dynamic model (cFTZBJ), clinical trial samples): 2.9±0.4%
- % cFTV ([1]; percent free testosterone calculated with Vermeulen's equation, as generally assumed): 1.5±0.4%
